In patent US9439414B2, “Sperm diluent solution and method for artificial insemination using same” (HIROSHIMA UNIVERSITY, priority 2009, dated 2016):

Experiments:
pig sperm [1] = assay: Sperm motility by motility analyzer (CASA); type: cell-based; conditions: EGTA 0, 3, 6, 9 mM added to Modena solution (6.3 mM EDTA); 1, 3 or 6 hours
Experimental: Media having concentrations of EDTA of 0 mM, 3 mM, 6.3 mM and 12 mM were prepared. The 0-mM-EDTA medium and the 3-mM-EDTA medium were prepared by removing EDTA-2Na from Modena solution and adjusting the EDTA concentration to 0 mM and 3 mM, respectively. As the 6.3-mM-EDTA medium, Modena solution was used as it is. Further, the 12-mM-EDTA medium was prepared by adding EDTA-2Na to Modena solution to attain an EDTA concentration of 12 mM.
To each medium, frozen sperm were added after thawing as in Experimental Example 1, and the sperm were cultured. The culturing time was 1 hour, 3 hours or 6 hours.
After the culture, the sperm motility was calculated using a motility analyzer (computer-assisted sperm motility analysis (CASA) system). On a plate prewarmed to 38° C., 5 μl of the medium after the culture was placed, and the ratio of moving sperm was analyzed using a computer.
0-mM-EGTA medium, 3-mM-EGTA medium, 6-mM-EGTA medium and 9-mM-EGTA medium were prepared. As the 0-mM-EGTA medium, Modena solution was used as it is. Further, the 3-mM-EGTA medium, 6-mM-EGTA medium and 9-mM-EGTA medium were prepared by adding EGTA to Modena solution to attain EGTA concentrations of 3 mM, 6 mM and 9 mM, respectively, in the medium. Since addition of EGTA results in more acidic pH of the medium, NaOH was added to the medium to adjust pH to 7.0 to 7.1. […]

pig sperm [2] = assay: Sperm acrosomal damage rate (FITC-peanut lectin staining); type: cell-based; conditions: EGTA 0, 3, 6, 9 mM in Modena solution
Experimental: 0-mM-EGTA medium, 3-mM-EGTA medium, 6-mM-EGTA medium and 9-mM-EGTA medium were prepared. As the 0-mM-EGTA medium, Modena solution was used as it is. Further, the 3-mM-EGTA medium, 6-mM-EGTA medium and 9-mM-EGTA medium were prepared by adding EGTA to Modena solution to attain EGTA concentrations of 3 mM, 6 mM and 9 mM, respectively, in the medium. Since addition of EGTA results in more acidic pH of the medium, NaOH was added to the medium to adjust pH to 7.0 to 7.1.
To each medium, frozen sperm were added after thawing as in Experimental Example 1, and the sperm was cultured. The culturing time was 1 hour, 3 hours or 6 hours.
The measurement of the sperm motility and detection of phosphorylation of tyrosine residues of the sperm proteins were carried out in the same manner as described above. The measurement of the sperm acrosomal damage rate was carried out as follows. On a slide glass, 5 μl of the medium was smeared, followed by air drying and 10 minutes of fixation with 99% methanol. After drying the methanol, marking was done with a liquid pen. FITC-peanut lectin was added to the smeared sperm (about 30 μl per sample), followed by 30 minutes of incubation at 37° C. in a moist atmosphere. Thereafter, the sperm were washed with PBS (5 minutes×3 times) and embedded in DAPI (VECTOR, VECTASHIELD with DAPI, H-1200) and then in manicure, followed by observation of the sperm.

mother pigs and piglets = assay: Health of mother pigs and piglets after artificial insemination with the cortisol-containing sperm diluent; type: in vivo, pig; conditions: 5 μg cortisol injected to the uterus
Experimental: Although the above adrenocortical hormone (a steroid hormone such as cortisol) is usually injected at a dose of 5 to 50 mg per individual for therapy of livestock, only 5 μg was injected to the uterus in the artificial insemination of the present Example. Thus, since this dose is about 1,000 to 10,000 times smaller than the dose in the cases of therapeutic use, it is thought that the meat of the mother pig and the fetuses in the uterus are not affected.

How did the “sperm motility (FIG. 3)” value (pig sperm [1]) turn out when O=C(O)CN(CCOCCOCCN(CC(=O)O)CC(=O)O)CC(=O)O [EGTA, ethylene glycol Bis(2-aminoethyl)-N,N,N′,N′-tetraacetic acid] was run?
Its value is “high”.

And the “sperm acrosomal damage rate (FIG. 5)” value (pig sperm [2])?
The value was “low”.

How did the “deformed piglets after the delivery” value (mother pigs and piglets) turn out when C[C@]12CCC(=O)C=C1CC[C@@H]1[C@@H]2[C@@H](O)C[C@@]2(C)[C@H]1CC[C@]2(O)C(=O)CO [cortisol] was run?
The value was “no deformed piglet was found”.
